Reference: patent US20240391940A1, “FUSED RING-CONTAINING COMPOUND, APPLICATION THEREOF, AND COMPOSITION CONTAINING SAME” (GenEros Biopharma Ltd., priority 2020, published 2024)

Columns and labels:
[1] = tested on: female BALB/c mice; assay: Toxicity, multiple administrations for 14 days in mice; format: in vivo; parameters: Changes in body weight of the mice in the toxicity test (group mean) / Changes in body weight of the mice in the toxicity test: unit not given here
Protocol: • Part I: Single administration. A total of 6 mice were used. They were randomly divided into 2 groups: the vehicle control and GEN1-284s (1000 mg/kg), dosed once by oral gavage and observed for 6 days, and changes in body weight and activities were recorded. • Part II: Multiple administrations. This experiment used a total of 6 mice. They were divided into two groups of 3: a GEN1-284s-1000 mg/kg group and a GEN1-284s-300 mg/kg group, and were intragastrically given GEN1-284s for 14 consecutive days at 200 μL each. The state and survival of the mice were observed every day, and their body weights were recorded. Two mice died 2 h after GEN1-284s-1000 mg/kg administration. The dose was changed to 600 mg/kg, and the experiment was continued.
This experiment used a total of 6 mice. They were divided into two groups of 3: a GEN1-284s-1000 mg/kg group and a GEN1-284s-300 mg/kg group, and were intragastrically given GEN1-284s for 14 consecutive days at 200 μL each. The state and survival of the mice were observed every day, and their body weights were recorded. Two mice died 2 h after GEN1-284s-1000 mg/kg administration. The dose was changed to 600 mg/kg, and the experiment was continued.
Each mouse was intragastrically administered GEN1-284s for 14 consecutive days in a volume of 200 μL/20 g. The state and survival of the mice were observed every day, and their body weights were recorded. Two mice died 2 h after GEN1-284s-1000 mg/kg administration. The dose was changed to 600 mg/kg, and the experiment was continued.
Changes in body weight and survival of the mice were observed during 6 days after the single administration, and changes in body weight and the survival of the mice were observed during 14 consecutive days of high-dose GEN1-284s administration.

[2] = tested on: STAT5 Y694 phosphorylation; assay: HTRF experiment: STAT5 Y694 phosphorylation in Hela cells; format: cell-based, Human; details: for Inhibition rate @10 μM: 10 μM compound, 2 h pretreatment, interferon stimulation 30 min
Protocol: A multifunctional microplate reader (TECAN; […] F PLEX); 96-well cell culture plates (Bioyong), HTRF 384-well low volume plates (Cisbio; Cat #66PL384025); Human interferon 0 (IFN-0) (GenScript; Cat #P01574), STAT5 phospho-Y694 kits (Cisbio; Cat #64AT5PEG).
Hela cells (American Type Culture Collection (ATCC), CCL-2) were cultured in a 96-well plate with DMEM containing 5% fetal bovine serum at a density of 3×10^4 cells/well. The cells were incubated overnight in a 37° C., 5% carbon dioxide humidified incubator. The next day, the original DMEM in the 96-well plate was blotted, and equal volumes of medium containing different concentrations of compounds (stock solutions of compounds prepared with dimethyl sulfoxide were diluted to desired concentrations in medium) were added for 2 h of pretreatment. The plate was left to stand in a 37° C. incubator. Human interferon 0 was then added to a final concentration of 10 nM for stimulation. The plate was gently shaken so the contents were well mixed, and the plate was then left to stand in a 37° C. incubator for 30 min.
The medium was removed, and the plate was washed once with an appropriate volume of PBS and then blotted dry. Then 1×lysis buffer was added at 40 μL/well, and the plate was left to stand at room temperature for 30 min (preparation of 1 mL of 1× lysis buffer: mixing well 740 μL of ddH2O with 250 μL of 4× lysis buffer and […]). After 30 min, the cells were repeatedly pipetted until the lysis buffer was not viscous (bubbles were avoided) so that sufficient lysis was achieved.
In an HTRF 384-well low volume plate, 4 μL of an antibody premix (containing two antibodies: Cryptate and d2: the two antibodies were each 20-fold diluted with detection buffer and were then mixed in equal volume to form the antibody premix) and 16 μL of the cell lysate were added to each well. The plate was sealed with a sealing membrane and then incubated overnight at room temperature in a dark place.
After the overnight incubation, signals at 665 nm and 620 nm were detected separately on a multifunctional microplate reader. The calculation formula for the STAT5 Y694 phosphorylation assay is: Ratio=[(signal 665 nm)/(signal 620 nm)]×10^4. A dimethyl sulfoxide-only treatment group was set as a negative control (RatioNegative), and an interferon 0 stimulation group without compound addition was set as a positive control (RatioPositive). The inhibition rates of different samples against STAT5 Y694 phosphorylation were normalized: inhibition rate=[1−(RatioExperiment−RatioNegative)/(RatioPositive−RatioNegative)]×100.

IC50 [2] [µM] | SMILES | Inhibition rate @10 μM [2] [%] | other results
– | O=C(Cc1ccc2ncccc2c1)N1CCC(n2c(=O)n(COP(=O)([O-])[O-])c3cccc(C(F)(F)F)c32)CC1.[Na+].[Na+] [Compound 284s] | – | Changes in body weight of the mice in the toxicity test (group mean) ([1]; 300 mg/kg P.O daily, Day 1): 16.97; Changes in body weight of the mice in the toxicity test (group mean) ([1]; 300 mg/kg P.O daily, Day 2): 16.93; Changes in body weight of the mice in the toxicity test (group mean) ([1]; 300 mg/kg P.O daily, Day 3): 16.87; Changes in body weight of the mice in the toxicity test (group mean) ([1]; 300 mg/kg P.O daily, Day 4): 17.17; Changes in body weight of the mice in the toxicity test (group mean) ([1]; 300 mg/kg P.O daily, Day 5): 17.17; Changes in body weight of the mice in the toxicity test (group mean) ([1]; 300 mg/kg P.O daily, Day 6): 17.23; Changes in body weight of the mice in the toxicity test (group mean) ([1]; 300 mg/kg P.O daily, Day 8): 17.47; Changes in body weight of the mice in the toxicity test (group mean) ([1]; 300 mg/kg P.O daily, Day 9): 17.17; Changes in body weight of the mice in the toxicity test (group mean) ([1]; 300 mg/kg P.O daily, Day 10): 17.1; Changes in body weight of the mice in the toxicity test (group mean) ([1]; 300 mg/kg P.O daily, Day 11): 17.3; Changes in body weight of the mice in the toxicity test (group mean) ([1]; 300 mg/kg P.O daily, Day 12): 17.23; Changes in body weight of the mice in the toxicity test (group mean) ([1]; 300 mg/kg P.O daily, Day 13): 17.47; Changes in body weight of the mice in the toxicity test (group mean) ([1]; 300 mg/kg P.O daily, Day 14): 17.47; Changes in body weight of the mice in the toxicity test (group mean) ([1]; 600 mg/kg group (1000 mg/kg, changed to 600 mg/kg on day 2) P.O daily, Day 1): 17.37; Changes in body weight of the mice in the toxicity test ([1]; 600 mg/kg group (1000 mg/kg, changed to 600 mg/kg on day 2) P.O daily, Day 2): 16.9; Changes in body weight of the mice in the toxicity test ([1]; 600 mg/kg group (1000 mg/kg, changed to 600 mg/kg on day 2) P.O daily, Day 3): 17.3; Changes in body weight of the mice in the toxicity test ([1]; 600 mg/kg group (1000 mg/kg, changed to 600 mg/kg on day 2) P.O daily, Day 4): 17.3
– | O=C(Cc1ccc2[nH]ccc2c1)N1CCC(n2c(=O)[nH]c3ccccc32)CC1 [GEN1-077, 3-[1-[2-(1H-Indol-5-yl)acetyl]-4-piperidinyl]-1H-benzimidazol-2-one] | 34.25 | –
– | CN(C)c1ccc(CC(=O)N2CCC(n3c(=O)[nH]c4cccc(C(F)(F)F)c43)CC2)cc1 [GEN1-118, 1-(1-(2-(4-(Dimethylamino)phenyl)acetyl)piperidin-4-yl)-7-(trifluoromethyl)-1,3-dihydro-2H-benzo[d]imidazol-2-one] | 27.57 | –
– | O=C(Cc1ccc2nccnc2c1)N1CCC(n2c(=O)[nH]c3cccc(C(F)(F)F)c32)CC1 [GEN1-140, 1-(1-(2-(Quinoxalin-6-yl)acetyl)piperidin-4-yl)-7-(trifluoromethyl)-1,3-dihydro-2H-benzo[d]imidazol-2-one] | 53.79 | –
– | O=C(Cc1c[nH]c2ccccc12)N1CCC(n2c(=O)[nH]c3cccc(C(F)(F)F)c32)CC1 [GEN1-169, reference compound] | 13.47 | –
– | O=C(Cc1ccc2sccc2c1)N1CCC(n2c(=O)[nH]c3cccc(C(F)(F)F)c32)CC1 [GEN1-298, 1-(1-(2-(Benzo[b]thiophen-5-yl)acetyl)piperidin-4-yl)-7-(trifluoromethyl)-1,3-dihydro-2H-benzo[d]imidazol-2-one] | 51.98 | –
7.6 | Cc1ccc2cc(CC(=O)N3CCC(n4c(=O)[nH]c5cccc(C(F)(F)F)c54)CC3)ccc2n1 [GEN1-300] | 72.83 | –
8.8 | O=C(Cc1ccc2nccc(Cl)c2c1)N1CCC(n2c(=O)[nH]c3cccc(C(F)(F)F)c32)CC1 [GEN1-301, 1-(1-(2-(4-Chloroquinolin-6-yl)acetyl)piperidin-4-yl)-7-(trifluoromethyl)-1,3-dihydro-2H-benzo[d]imidazol-2-one] | 80.70 | –
7 | O=C(Cc1ccc2nc(Cl)ccc2c1)N1CCC(n2c(=O)[nH]c3cccc(C(F)(F)F)c32)CC1 [GEN1-302, 1-(1-(2-(2-Chloroquinolin-6-yl)acetyl)piperidin-4-yl)-7-(trifluoromethyl)-1,3-dihydro-2H-benzo[d]imidazol-2-one] | 80.37 | –
5.5 | Cc1cc(CC(=O)N2CCC(n3c(=O)[nH]c4cccc(C(F)(F)F)c43)CC2)cc2cccnc12 [GEN1-303, 1-(1-(2-(8-Methylquinolin-6-yl)acetyl)piperidin-4-yl)-7-(trifluoromethyl)-1,3-dihydro-2H-benzo[d]imidazol-2-one] | 91.91 | –
– | N#Cc1ccnc2ccc(CC(=O)N3CCC(n4c(=O)[nH]c5cccc(C(F)(F)F)c54)CC3)cc12 [GEN1-304, 6-(2-Oxo-2-(4-(2-oxo-7-(trifluoromethyl)-2,3-dihydro-1H-benzo[d]imidazol-1-yl)piperidin-1-yl)ethyl)quinoline-4-carbonitrile] | 40.76 | –
– | COc1ccc2cc(CC(=O)N3CCC(n4c(=O)[nH]c5cccc(C(F)(F)F)c54)CC3)ccc2n1 [GEN1-305] | 63.05 | –
– | O=C(Cc1ccc2ncccc2c1Cl)N1CCC(n2c(=O)[nH]c3cccc(C(F)(F)F)c32)CC1 [GEN1-306, 1-(1-(2-(5-Chloroquinolin-6-yl)acetyl)piperidin-4-yl)-7-(trifluoromethyl)-1,3-dihydro-2H-benzo[d]imidazol-2-one] | 95.64 | –
– | O=C(Cc1ccc2ncc(C(F)(F)F)cc2c1)N1CCC(n2c(=O)[nH]c3cccc(C(F)(F)F)c32)CC1 [GEN1-312] | 55.50 | –

SMILES | IC50 [2] [µM] | Inhibition rate @10 μM [2] [%] | other results
O=C(Cc1ccc2ncccc2c1)N1CCC(n2c(=O)n(COP(=O)(O)O)c3cccc(C(F)(F)F)c32)CC1 [GEN1-284, (2-Oxo-3-(1-(2-(quinolin-6-yl)acetyl)piperidin-4-yl)-4-(trifluoromethyl)-2,3-dihydro-1H-benzo[d]imidazol-1-yl)methyl dihydrogen phosphate] | 3.9 | 80.21 | –
